Measurements from ChEMBL document CHEMBL1681651, “A broad spectrum anticancer nucleoside with selective toxicity against human colon cells in vitro” (2011).

Experiments:
Format in all cases: functional
[1] = tested on: NCI-H23; test: Growth inhibition of human NCI-H23 cells assessed as cell growth at 100 uM after 48 hrs by SRB assay; details: NCI-H23, 48 h, read-out: Activity
[2] = tested on: OVCAR-8; test: Growth inhibition of human OVCAR8 cells assessed as cell growth at 100 uM after 48 hrs by SRB assay; details: OVCAR-8, 48 h, read-out: Activity
[3] = tested on: SK-MEL-5; test: Growth inhibition of human SK-MEL-5 cells assessed as cell growth at 0.1 uM after 48 hrs by SRB assay; details: SK-MEL-5, 48 h, read-out: Activity
[4] = tested on: HCC 2998; test: Growth inhibition of human HCC2998 cells assessed as cell growth at 100 uM after 48 hrs by SRB assay; details: HCC 2998, 48 h, read-out: Activity
[5] = tested on: HOP-92; test: Growth inhibition of human HOP92 cells assessed as cell growth at 1 mM after 48 hrs by SRB assay; details: HOP-92, 48 h, read-out: Activity
[6] = tested on: SN12C; test: Growth inhibition of human SN12C cells assessed as cell growth at 1 uM after 48 hrs by SRB assay; details: read-out: Activity
[7] = tested on: SF-268; test: Growth inhibition of human SF268 cells assessed as cell growth at 1 mM after 48 hrs by SRB assay; details: SF-268, 48 h, read-out: Activity
[8] = tested on: SNB-19; test: Growth inhibition of human SNB19 cells assessed as cell growth at 1 mM after 48 hrs by SRB assay; details: SNB-19, 48 h, read-out: Activity
[9] = tested on: T47D; test: Growth inhibition of human T47D cells assessed as cell growth at 0.1 uM after 48 hrs by SRB assay; details: read-out: Activity
[10] = tested on: A498; test: Growth inhibition of human A498 cells assessed as cell growth at 10 uM after 48 hrs by SRB assay; details: A498, 48 h, read-out: Activity
[11] = tested on: MDA-MB-468; test: Growth inhibition of human MDA-MB-468 cells after 48 hrs by […] growth inhibition assay; details: MDA-MB-468, 48 h
[12] = tested on: OVCAR-5; test: Growth inhibition of human OVCAR5 cells assessed as cell growth at 100 uM after 48 hrs by SRB assay; details: OVCAR-5, 48 h, read-out: Activity
[13] = tested on: UACC-62; test: Growth inhibition of human UACC62 cells assessed as cell growth at 100 uM after 48 hrs by SRB assay; details: UACC-62, 48 h, read-out: Activity
[14] = tested on: SF-295; test: Growth inhibition of human SF295 cells assessed as cell growth at 10 uM after 48 hrs by SRB assay; details: SF-295, 48 h, read-out: Activity
[15] = tested on: SF-268; test: Growth inhibition of human SF268 cells after 48 hrs by […] growth inhibition assay; details: SF-268, 48 h
[16] = tested on: ACHN; test: Growth inhibition of human ACHN cells assessed as cell growth at 0.1 uM after 48 hrs by SRB assay; details: read-out: Activity
[17] = tested on: Malme-3M; test: Growth inhibition of human MALME-3M cells assessed as cell growth at 0.1 uM after 48 hrs by SRB assay; details: read-out: Activity
[18] = tested on: OVCAR-8; test: Growth inhibition of human OVCAR8 cells assessed as cell growth at 10 uM after 48 hrs by SRB assay; details: OVCAR-8, 48 h, read-out: Activity
[19] = tested on: OVCAR-3; test: Growth inhibition of human OVCAR3 cells assessed as cell growth at 0.1 uM after 48 hrs by SRB assay; details: OVCAR-3, 48 h, read-out: Activity
[20] = tested on: OVCAR-3; test: Growth inhibition of human OVCAR3 cells assessed as cell growth at 1 mM after 48 hrs by SRB assay; details: OVCAR-3, 48 h, read-out: Activity
[21] = tested on: SF-295; test: Growth inhibition of human SF295 cells assessed as cell growth at 1 mM after 48 hrs by SRB assay; details: SF-295, 48 h, read-out: Activity
[22] = tested on: HCT-15; test: Growth inhibition of human HCT15 cells assessed as cell growth at 1 mM after 48 hrs by SRB assay; details: HCT-15, 48 h, read-out: Activity
[23] = tested on: HCT-15; test: Growth inhibition of human HCT15 cells assessed as cell growth at 10 uM after 48 hrs by SRB assay; details: HCT-15, 48 h, read-out: Activity
[24] = tested on: A549; test: Growth inhibition of human A549 cells assessed as cell growth at 10 uM after 48 hrs by SRB assay; details: A549, 48 h, read-out: Activity
[25] = tested on: 786-0; test: Growth inhibition of human 786-0 cells assessed as cell growth at 1 mM after 48 hrs by SRB assay; details: 786-0, 48 h, read-out: Activity
[26] = tested on: NCI-H322M; test: Growth inhibition of human NCI-H322M cells assessed as cell growth at 100 uM after 48 hrs by SRB assay; details: read-out: Activity
[27] = tested on: 786-0; test: Growth inhibition of human 786-0 cells assessed as cell growth at 1 uM after 48 hrs by SRB assay; details: 786-0, 48 h, read-out: Activity
[28] = tested on: SK-MEL-2; test: Growth inhibition of human SK-MEL-2 cells assessed as cell growth at 0.1 uM after 48 hrs by SRB assay; details: SK-MEL-2, 48 h, read-out: Activity
[29] = tested on: SNB-75; test: Growth inhibition of human SNB75 cells after 48 hrs by […] growth inhibition assay; details: SNB-75, 48 h
[30] = tested on: NCI-H23; test: Growth inhibition of human NCI-H23 cells assessed as cell growth at 1 mM after 48 hrs by SRB assay; details: NCI-H23, 48 h, read-out: Activity
[31] = tested on: NCI-H226; test: Growth inhibition of human NCI-H226 cells assessed as cell growth at 1 mM after 48 hrs by SRB assay; details: NCI-H226, 48 h, read-out: Activity
[32] = tested on: OVCAR-5; test: Growth inhibition of human OVCAR5 cells assessed as cell growth at 1 uM after 48 hrs by SRB assay; details: OVCAR-5, 48 h, read-out: Activity
[33] = tested on: A498; test: Growth inhibition of human A498 cells after 48 hrs by […] growth inhibition assay; details: A498, 48 h
[34] = tested on: NCI/ADR-RES; test: Growth inhibition of human NCI/ADR-RES cells assessed as cell growth at 100 uM after 48 hrs by SRB assay; details: read-out: Activity
[35] = tested on: NCI-H23; test: Growth inhibition of human NCI-H23 cells assessed as cell growth at 10 uM after 48 hrs by SRB assay; details: NCI-H23, 48 h, read-out: Activity
[36] = tested on: Malme-3M; test: Growth inhibition of human MALME-3M cells assessed as cell growth at 100 uM after 48 hrs by SRB assay; details: read-out: Activity
[37] = tested on: HL-60(TB); test: Growth inhibition of human HL-60(TB) cells assessed as cell growth at 10 uM after 48 hrs by SRB assay; details: HL-60, 48 h, read-out: Activity
[38] = read-out: LC50 (the source's name)
[39] = read-out: pLC50 (the source's name) (converted)

With `CNC(=O)NC[C@H]1O[C@@H](n2cnc3c(NC(=O)Nc4ccccc4)ncnc32)[C@H](O[Si](C)(C)C(C)(C)C)[C@@H]1O[Si](C)(C)C(C)(C)C` the growth at 100 µM [1] was -5%, the growth at 100 µM [2] was 13% and the growth at 0.1 µM [3] was 102%. It also gave a growth at 100 µM [4] of -79%, a growth at 1000 µM [5] of -50% and a growth at 1 µM [6] of 100%. For the same compound, the growth at 1000 µM [7] was -45%, the growth at 1000 µM [8] was 7% and the growth at 0.1 µM [9] was 101%. For the same compound, the growth at 10 µM [10] was 90%, the GI50 ([11]; read-out: GI50) was 3.35 µM and the CC50 [11, 38] was > 100 µM. The TGI ([11]; read-out: TGI) was 13.9 µM, the GI50 ([11]; read-out: pGI50 (converted)) was 3.39 µM and the CC50 [11, 39] was > 100 µM. For the same compound, the TGI ([11]; read-out: pTGI (converted)) was 13.8 µM, the growth at 100 µM [12] was 29% and the growth at 100 µM [13] was 23%. The growth at 10 µM [14] was 111%, the GI50 ([15]; read-out: GI50) was 3.58 µM and the CC50 [15, 38] was > 100 µM. For the same compound, the TGI ([15]; read-out: TGI) was 14 µM, the GI50 ([15]; read-out: pGI50 (converted)) was 3.55 µM and the CC50 [15, 39] was > 100 µM. For the same compound, the TGI ([15]; read-out: pTGI (converted)) was 14.1 µM, the growth at 0.1 µM [16] was 107% and the growth at 0.1 µM [17] was 105%. It also gave a growth at 10 µM [18] of 106%, a growth at 0.1 µM [19] of 111% and a growth at 1000 µM [20] of -50%. The growth at 1000 µM [21] was -7%, the growth at 1000 µM [22] was 6% and the growth at 10 µM [23] was 100%. The growth at 10 µM [24] was 90%, the growth at 1000 µM [25] was -80% and the growth at 100 µM [26] was 39%. For the same compound, the growth at 1 µM [27] was 113%, the growth at 0.1 µM [28] was 108% and the GI50 ([29]; read-out: GI50) was 2.43 µM. The CC50 [29, 38] was > 100 µM, the TGI ([29]; read-out: TGI) was 34.1 µM and the GI50 ([29]; read-out: pGI50 (converted)) was 2.45 µM. For the same compound, the CC50 [29, 39] was > 100 µM, the TGI ([29]; read-out: pTGI (converted)) was 33.9 µM and the growth at 1000 µM [30] was -53%. For the same compound, the growth at 1000 µM [31] was -48%, the growth at 1 µM [32] was 99% and the GI50 ([33]; read-out: GI50) was 2.03 µM. It also gave a CC50 [33, 38] of 19.5 µM, a TGI ([33]; read-out: TGI) of 4.96 µM and a GI50 ([33]; read-out: pGI50 (converted)) of 2.04 µM. The CC50 [33, 39] was 19.5 µM, the TGI ([33]; read-out: pTGI (converted)) was 5.01 µM and the growth at 100 µM [34] was 10%. It also gave a growth at 10 µM [35] of 105% and a growth at 100 µM [36] of -1%.
Work on `CNC(=O)NC[C@H]1O[C@@H](n2cnc3c(NC(=O)Nc4ccccc4)ncnc32)[C@H](O[Si](C)(C)C(C)(C)C)[C@@H]1CC(=O)N(C)OC` yielded a growth at 100 µM [1] of 71%, a growth at 100 µM [2] of 48% and a growth at 0.1 µM [3] of 104%. It also gave a growth at 100 µM [4] of 66%, a growth at 1000 µM [5] of -43% and a growth at 1 µM [6] of 104%. It also gave a growth at 10 µM [37] of 84%, a growth at 1000 µM [7] of 20% and a growth at 1000 µM [8] of 51%. For the same compound, the growth at 0.1 µM [9] was 90%, the growth at 10 µM [10] was 87% and the CC50 [11, 38] was > 100 µM. The growth at 100 µM [12] was 71%, the growth at 100 µM [13] was 69% and the growth at 10 µM [14] was 98%. For the same compound, the GI50 ([15]; read-out: GI50) was 8.29 µM, the CC50 [15, 38] was > 100 µM and the TGI ([15]; read-out: TGI) was > 100 µM. For the same compound, the GI50 ([15]; read-out: pGI50 (converted)) was 8.32 µM, the CC50 [15, 39] was > 100 µM and the TGI ([15]; read-out: pTGI (converted)) was > 100 µM. For the same compound, the growth at 0.1 µM [16] was 107%, the growth at 0.1 µM [17] was 103% and the growth at 10 µM [18] was 103%. It also gave a growth at 0.1 µM [19] of 95%, a growth at 1000 µM [20] of 6% and a growth at 1000 µM [21] of 20%. For the same compound, the growth at 1000 µM [22] was 37%, the growth at 10 µM [23] was 93% and the growth at 10 µM [24] was 97%. For the same compound, the growth at 1000 µM [25] was 8%, the growth at 100 µM [26] was 90% and the growth at 1 µM [27] was 92%. For the same compound, the growth at 0.1 µM [28] was 85%, the GI50 ([29]; read-out: GI50) was 12.7 µM and the CC50 [29, 38] was > 100 µM. The TGI ([29]; read-out: TGI) was > 100 µM, the GI50 ([29]; read-out: pGI50 (converted)) was 12.9 µM and the CC50 [29, 39] was > 100 µM. The TGI ([29]; read-out: pTGI (converted)) was > 100 µM, the growth at 1000 µM [30] was 43% and the growth at 1000 µM [31] was 40%. For the same compound, the growth at 1 µM [32] was 98%, the GI50 ([33]; read-out: GI50) was 3.87 µM and the CC50 [33, 38] was > 100 µM. The TGI ([33]; read-out: TGI) was 40.3 µM, the GI50 ([33]; read-out: pGI50 (converted)) was 3.89 µM and the CC50 [33, 39] was > 100 µM. It also gave a TGI ([33]; read-out: pTGI (converted)) of 40.7 µM, a growth at 100 µM [34] of 76% and a growth at 10 µM [35] of 99%. The growth at 100 µM [36] was 52%.
